Experimental data: patent US20230079045A1 (priority 2019, published 2023)
Read-outs that look alike come from different tables or passages of the source.

How the values were obtained:
[1] = system: IFVA/Weiss/43; assay: cytopathic effect (CPE) antiviral test in MDCK cells, IFVA/Weiss/43; type: cell-based, influenza virus
[2] = system: IFVA/Mal/302/54; assay: cytopathic effect (CPE) antiviral test in MDCK cells, IFVA/Mal/302/54; type: cell-based, influenza virus
[3] = unidentified influenza virus, MDCK, 120 h, read-out: EC50(IFVA/Weiss/43), MDCK cells, CPE method, CCK-8 cell viability, 5 days
[4] = unidentified influenza virus, MDCK, 120 h, read-out: EC50(IFVA/Mal/302/54), MDCK cells, CPE method, CCK-8 cell viability, 5 days
[5] = read-out: EC50(IFVA/Weiss/43), MDCK cells, CPE method, CCK-8 cell viability, 5 days
[6] = read-out: EC50(IFVA/Mal/302/54), MDCK cells, CPE method, CCK-8 cell viability, 5 days

Q: With `Cn1nnc(C(c2ccccc2)N2CCN(C(=O)c3cc(-c4nc5cc(NC(=O)[C@@H]6C[C@H]6F)ccc5o4)ccn3)CC2)n1` (stereo partly drawn) [Compound 25, (1S,2R)-2-fluoro-N-(2-(2-(4-((2-methyl-2H-tetrazol-5-yl)(phenyl)methyl)piperazine-1-carbonyl)pyridin-4-yl)benzo[d]oxazol-5-yl)cyclopropane-1-carboxamide] as the molecule, how does the EC50 [1, 3] read?
A: Its EC50 is 60 nM.

Q: What about the EC50 [2, 4] of the same molecule?
A: Its EC50 is 68 nM.

Q: `CC(=O)Nc1ccc2oc(-c3ccnc(C(=O)N4CCN(C(c5ccccc5)c5nnn(C)n5)C5(CC5)C4)c3)nc2c1` (stereo not drawn) [Compound 7, N-(2-(2-(4-((2-methyl-2H-tetrazol-5-yl)(phenyl)methyl)-4,7-diazaspiro[2.5]octane-7-carbonyl)pyridin-4-yl)benzo[d]oxazol-5-yl)acetamide] was tested. Which EC50 [1, 3] did it give?
A: Its EC50 is 520 nM.

Q: And the EC50 [2, 4]?
A: Its EC50 is 841 nM.

Q: Which results are given for `CC(=O)Nc1ccc2oc(-c3ccnc(C(=O)N4CCN(C(c5ccccc5)c5nnn(C(F)F)n5)CC4)c3F)nc2c1` (racemic) [Compound 79, (R/S)—N-(2-(2-(4-((2-(difluoromethyl)-2H-tetrazol-5-yl)(phenyl)methyl)piperazine-1-carbonyl)-3-fluoropyridin-4-yl)benzo[d]oxazol-5-yl)acetamide]?
A: EC50 [1, 3]: 7 nM; EC50 [2, 4]: 13 nM

Q: With `CC(=O)Nc1ccc2oc(-c3ccnc(C(=O)N4C[C@H]5C[C@@H]4CN5C(c4ccccc4)c4nnn(C)n4)c3)nc2c1` (stereo partly drawn) [Compound 6b, N-(2-(2-((1R,4R)-5-((2-methyl-2H-tetrazol-5-yl)(phenyl)methyl)-2,5-diazabicyclo[2.2.1]heptane-2-carbonyl)pyridin-4-yl)benzo[d]oxazol-5-yl)acetamide] as the molecule, how does the EC50 [1, 5] read?
A: The EC50 was over 10000 nM.

Q: And the EC50 [2, 6]?
A: The EC50 was over 10000 nM.

Q: What does the source list for `CC(=O)Nc1ccc2oc(-c3ccnc(C(=O)N4CCN(C(c5ccccc5)c5nnn(C(F)F)n5)CC4)c3F)nc2c1` (stereo not drawn) [Compound 56, N-(2-(2-(4-((2-(difluoromethyl)-2H-tetrazol-5-yl)(phenyl)methyl)piperazine-1-carbonyl)-3-fluoropyridin-4-yl)benzo[d]oxazol-5-yl)acetamide]?
A: EC50 [1, 3]: 17 nM; EC50 [2, 4]: 33 nM

Q: For `CC(=O)Nc1cc2nc(-c3ccnc(C(=O)N4CCN(C(c5ccccc5)c5nnn(C(F)F)n5)CC4)c3)oc2cc1F` (stereo not drawn) [Compound 59, N-(2-(2-(4-((2-(difluoromethyl)-2H-tetrazol-5-yl)(phenyl)methyl)piperazine-1-carbonyl)pyridin-4-yl)-6-fluorobenzo[d]oxazol-5-yl)acetamide], which EC50 [1, 3] is on record?
A: The EC50 was 56 nM.

Q: And the EC50 [2, 4]?
A: The EC50 was 58 nM.

Q: How did the EC50 [1, 3] turn out when `Cn1nnc(C(c2ccccc2)N2C[C@H]3CC[C@@H](C2)N3C(=O)c2cc(-c3nc4cc(N5CCCC5=O)ccc4o3)ccn2)n1` (stereo partly drawn) [Compound 19, 1-(2-(2-((1R,5S)-3-((2-methyl-2H-tetrazol-5-yl)(phenyl)methyl)-3,8-diazabicyclo[3.2.1]octane-8-carbonyl)pyridin-4-yl)benzo[d]oxazol-5-yl)pyrrolidin-2-one] was run?
A: The EC50 was 23 nM.

Q: What about the EC50 [2, 4] of the same molecule?
A: The EC50 was 19 nM.

Q: With `Cn1nnc(C(c2ccccc2)N2CCN(C(=O)c3cc(-c4nc5cc(NC(=O)C6CC6)ccc5o4)ccn3)CC2)n1` (stereo not drawn) [Compound 35, N-(2-(2-(4-((2-methyl-2H-tetrazol-5-yl)(phenyl)methyl)piperazine-1-carbonyl)pyridin-4-yl)benzo[d]oxazol-5-yl)cyclopropanecarboxamide] as the molecule, how does the EC50 [1, 3] read?
A: Its EC50 is 12 nM.

Q: And the EC50 [2, 4]?
A: Its EC50 is 19 nM.

Q: For `CC(=O)Nc1ccc2oc(-c3ccnc(C(=O)N4CCC(O)(C(c5ccccc5)c5nnn(C)n5)CC4)c3)nc2c1` (stereo not drawn) [Compound 47, N-(2-(2-(4-hydroxy-4-((2-methyl-2H-tetrazol-5-yl)(phenyl)methyl)piperidine-1-carbonyl)pyridin-4-yl)benzo[d]oxazol-5-yl)acetamide], which EC50 [1, 3] is on record?
A: The EC50 was 35 nM.

Q: And the EC50 [2, 4]?
A: The EC50 was 81 nM.

Q: Which results are given for `Cn1nnc(C(c2ccccc2)N2CCN(C(=O)c3cc(-c4nc5cc(N6CCCC6=O)ccc5o4)ccn3)CC2)n1` (stereo not drawn) [Compound 2, 1-(2-(2-(4-((2-methyl-2H-tetrazol-5-yl)(phenyl)methyl)piperazine-1-carbonyl)pyridin-4-yl)benzo[d]oxazol-5-yl)pyrrolidin-2-one]?
A: EC50 [1, 3]: < 5 nM; EC50 [2, 4]: 26 nM

Q: How did the EC50 [1, 3] turn out when `CC(=O)Nc1ccc2nn(-c3ccnc(C(=O)N4CCN(C(c5ccccc5)c5nnn(C(F)F)n5)CC4)c3)cc2c1` (stereo not drawn) [Compound 60, N-(2-(2-(4-((2-(difluoromethyl)-2H-tetrazol-5-yl)(phenyl)methyl)piperazine-1-carbonyl)pyridin-4-yl)-2H-indazol-5-yl)acetamide] was run?
A: Its EC50 is 54 nM.

Q: And the EC50 [2, 4]?
A: Its EC50 is 84 nM.

Q: How did the EC50 [1, 3] turn out when `COC(=O)Nc1ccc2oc(-c3ccnc(C(=O)N4CCN(C(c5ccccc5)c5nnn(C)n5)CC4)c3)nc2c1` (stereo not drawn) [Compound 51, Methyl (2-(2-(4-((2-methyl-2H-tetrazol-5-yl)(phenyl)methyl)piperazine-1-carbonyl)pyridin-4-yl)benzo[d]oxazol-5-yl)carbamate] was run?
A: The EC50 was 84 nM.

Q: What about the EC50 [2, 4] of the same molecule?
A: The EC50 was 34 nM.

Q: `CC(C)C(=O)Nc1ccc2oc(-c3ccnc(C(=O)N4CCN(C(c5ccccc5)c5nnn(C(F)F)n5)CC4)c3)nc2c1` (racemic) [Compound 97, (R/S)—N-(2-(2-(4-((2-(difluoromethyl)-2H-tetrazol-5-yl)(phenyl)methyl)piperazine-1-carbonyl)pyridin-4-yl)benzo[d]oxazol-5-yl)isobutyramide] was tested. Which EC50 [1, 3] did it give?
A: Its EC50 is 7 nM.

Q: What about the EC50 [2, 4] of the same molecule?
A: The EC50 was 6 nM.

Q: How did the EC50 [1, 3] turn out when `CC(=O)Nc1ccc2oc(-c3ccnc(C(=O)N4CCN(C(c5ccc(F)cc5)c5nnn(C)n5)CC4)c3)nc2c1` (stereo not drawn) [Compound 12, N-(2-(2-(4-((4-fluorophenyl)(2-methyl-2H-tetrazol-5-yl)methyl)piperazine-1-carbonyl)pyridin-4-yl)benzo[d]oxazol-5-yl)acetamide] was run?
A: Its EC50 is 22 nM.

Q: And the EC50 [2, 4]?
A: Its EC50 is 55 nM.

Q: `Cn1nnc(C(c2ccccc2)N2CCN(C(=O)c3cc(-c4nc5cc(OC(F)F)ccc5o4)ccn3)CC2)n1` (stereo not drawn) [Compound 44, (4-(5-(difluoromethoxy)benzo[d]oxazol-2-yl)pyridin-2-yl)(4-((2-methyl-2H-tetrazol-5-yl)(phenyl)methyl)piperazin-1-yl)methanone] was tested. Which EC50 [1, 3] did it give?
A: The EC50 was 110 nM.

Q: And the EC50 [2, 4]?
A: Its EC50 is 65 nM.

Q: With `CC(=O)Nc1ccc2oc(-c3ccnc(C(=O)N4CCN(C(c5ccccc5)c5nnn(C)n5)CC45CC5)c3)nc2c1` (stereo not drawn) [Compound 5, N-(2-(2-(7-((2-methyl-2H-tetrazol-5-yl)(phenyl)methyl)-4,7-diazaspiro[2.5]octane-4-carbonyl)pyridin-4-yl)benzo[d]oxazol-5-yl)acetamide] as the molecule, how does the EC50 [1, 3] read?
A: The EC50 was 16 nM.

Q: What about the EC50 [2, 4] of the same molecule?
A: The EC50 was 24 nM.

Q: Which results are given for `CC(=O)Nc1ccc2oc(-c3ccnc(C(=O)N4CC5(CCN(C(c6ccccc6)c6nnn(C)n6)CC5)C4)c3)nc2c1` (stereo not drawn) [Compound 8, N-(2-(2-(7-((2-methyl-2H-tetrazol-5-yl)(phenyl)methyl)-2,7-diazaspiro[3.5]nonane-2-carbonyl)pyridin-4-yl)benzo[d]oxazol-5-yl)acetamide]?
A: EC50 [1, 3]: > 10000 nM; EC50 [2, 4]: > 10000 nM

Q: For `CC(=O)Nc1ccc2oc(-c3ccnc(C(=O)N4C5CCC4CN(C(c4ccccc4)c4nnnn4C(F)F)C5)c3)nc2c1` (stereo not drawn) [Compound 18, N-(2-(2-(3-((1-(difluoromethyl)-1H-tetrazol-5-yl)(phenyl)methyl)-3,8-diazabicyclo[3.2.1]octane-8-carbonyl)pyridin-4-yl)benzo[d]oxazol-5-yl)acetamide], which EC50 [1, 3] is on record?
A: Its EC50 is 422 nM.

Q: And the EC50 [2, 4]?
A: Its EC50 is 177 nM.

Q: For `Cn1nnc(C(c2ccccc2)N2CCN(C(=O)c3cc(-c4nc5cc(OC6CCOC6)ccc5o4)ccn3)CC2)n1` (stereo in doubt) [Compound 43, (4-((2-methyl-2H-tetrazol-5-yl)(phenyl)methyl)piperazin-1-yl)(4-(5-(((R)-tetrahydrofuran-3-yl)oxy)benzo[d]oxazol-2-yl)pyridin-2-yl)methanone], which EC50 [1, 5] is on record?
A: The EC50 was 57 nM.

Q: And the EC50 [2, 6]?
A: Its EC50 is 10 nM.

Q: Which EC50 [1, 3] does the source give for `CC(=O)Nc1ccc2oc(-c3ccnc(C(=O)N4CCC5(CC4)CN(C(c4ccccc4)c4nnn(C)n4)C5)c3)nc2c1` (stereo not drawn) [Compound 13, N-(2-(2-(2-((2-methyl-2H-tetrazol-5-yl)(phenyl)methyl)-2,7-diazaspiro[3.5]nonane-7-carbonyl)pyridin-4-yl)benzo[d]oxazol-5-yl)acetamide] here?
A: The EC50 was over 10000 nM.

Q: And the EC50 [2, 4]?
A: The EC50 was 7830 nM.

Q: For `CC(=O)Nc1cc(F)c2oc(-c3ccnc(C(=O)N4CCN(C(c5ccccc5)c5nnn(C(F)F)n5)CC4)c3)nc2c1` (stereo not drawn) [Compound 61, N-(2-(2-(4-((2-(difluoromethyl)-2H-tetrazol-5-yl)(phenyl)methyl)piperazine-1-carbonyl)pyridin-4-yl)-7-fluorobenzo[d]oxazol-5-yl)acetamide], which EC50 [1, 3] is on record?
A: Its EC50 is 28 nM.

Q: And the EC50 [2, 4]?
A: The EC50 was 78 nM.

Q: Which results are given for `CC(=O)Nc1ccc2oc(-c3ccnc(C(=O)N4C5CC4CN(C(c4ccccc4)c4nnn(C)n4)C5)c3)nc2c1` (stereo not drawn) [Compound 20, N-(2-(2-(3-((2-methyl-2H-tetrazol-5-yl)(phenyl)methyl)-3,6-diazabicyclo[3.1.1]heptane-6-carbonyl)pyridin-4-yl)benzo[d]oxazol-5-yl)acetamide]?
A: EC50 [1, 3]: 545 nM; EC50 [2, 4]: 919 nM

Q: For `Cn1nnc(C(c2ccccc2)N2CCN(C(=O)c3cc(-c4nc5cc(N6CCOC6=O)ccc5o4)ccn3)CC2)n1` (stereo not drawn) [Compound 50, 3-(2-(2-(4-((2-methyl-2H-tetrazol-5-yl)(phenyl)methyl)piperazine-1-carbonyl)pyridin-4-yl)benzo[d]oxazol-5-yl)oxazolidin-2-one], which EC50 [1, 3] is on record?
A: The EC50 was 242 nM.

Q: What about the EC50 [2, 4] of the same molecule?
A: Its EC50 is 120 nM.

Q: `CC(=O)Nc1ccc2nc(-c3ccnc(C(=O)N4CCN(C(c5ccccc5)c5nnn(C(F)F)n5)CC4)c3)oc2c1` (racemic) [Compound 90, (R/S)—N-(2-(2-(4-((2-(difluoromethyl)-2H-tetrazol-5-yl)(phenyl)methyl)piperazine-1-carbonyl)pyridin-4-yl)benzo[d]oxazol-6-yl)acetamide] was tested. Which EC50 [1, 3] did it give?
A: Its EC50 is 28 nM.

Q: And the EC50 [2, 4]?
A: The EC50 was 18 nM.
